Test [1] addresses T1, hS1a (human betaine/GABA transporter, hBGT) (Homo sapiens, UniProt P48065).
T1 sequence (P48065 1-614 C10Y): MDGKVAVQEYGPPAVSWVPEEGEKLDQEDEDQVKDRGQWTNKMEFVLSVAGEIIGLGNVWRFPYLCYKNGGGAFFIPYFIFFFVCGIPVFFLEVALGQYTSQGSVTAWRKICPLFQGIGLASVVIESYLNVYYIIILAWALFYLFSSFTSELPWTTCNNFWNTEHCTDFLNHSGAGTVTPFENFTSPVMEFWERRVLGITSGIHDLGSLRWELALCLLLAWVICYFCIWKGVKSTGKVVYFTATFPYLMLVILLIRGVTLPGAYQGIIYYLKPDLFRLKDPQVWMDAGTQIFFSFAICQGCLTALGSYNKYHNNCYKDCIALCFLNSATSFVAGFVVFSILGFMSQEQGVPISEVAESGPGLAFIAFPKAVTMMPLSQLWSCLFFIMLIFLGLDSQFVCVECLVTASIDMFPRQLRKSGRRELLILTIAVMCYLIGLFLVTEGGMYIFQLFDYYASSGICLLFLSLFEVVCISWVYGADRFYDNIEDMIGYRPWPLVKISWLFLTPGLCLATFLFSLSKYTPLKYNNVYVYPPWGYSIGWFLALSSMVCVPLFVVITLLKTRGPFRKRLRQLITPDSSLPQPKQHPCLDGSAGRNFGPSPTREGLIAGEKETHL
In words: Inhibition of specific [^3 H]GABA uptake in COS7 (transient) or LMtk- (stable; hS1a-3) cells expressing hS1a. It is filed as cell-based. Also on record: Translation of a long open reading frame predicts a protein of 614 amino acids with 12 putative transmembrane domains; expressed in transfected cells. To be noted: for IC50: estimated from data for one or two concentrations of inhibitor (Table 1), not corrected for [^3 H]GABA concentration; for inhibition at 100 µM / inhibition at 500 µM: read-out: % Inhibition of specific [^3 H]GABA uptake; for potency at hS1a vs dog and mouse transporters, in words: comparison across clones; for inhibitory potency at hS1a in words: inhibition of [^3 H]GABA uptake. As for the experimental part: (§1) Transport was also measured in suspension. The details of this method will described in detail in a subsequent publication (Borden et al., manuscript in preparation). Briefly, transient (COS-7) or stable (LM) transfectants were removed from culture plates with trypsin/EDTA, and transferred to suspension culture. The cells were grown in a temperature-controlled shaking incubator, using a medium containing methylcellulose. To measure transport the cells were washed by centrifugation, and resuspended in HBS. The assay was performed in 96-well microtiter plates (total volume=0.25 ml/well). […] Cell-associated radioactivity retained on the filters was determined by scintillation counting.

The test system of test [2] is mouse betaine/GABA transporter. To be noted: data from Lopez-Corcuera et al., 1992; estimated from one or two concentrations of inhibitor; cited from earlier work.
Test [3] addresses T1, hS1a (human betaine/GABA transporter, hBGT). To be noted: in words. The protocol: as §1
(§2) For example, the dog and mouse clones were expressed in oocytes, whereas we employed COS-7 or LMtk^- fibroblasts for the human clone. Additionally, we measured transport for 10 minutes at 37° C., while the dog clone was assayed for 30 minutes at 25° C. […] Another important factor is our use of suspension cultures.

Test [4] relates to dog betaine/GABA transporter. Conditions: Yamauchi et al., 1992, cited from earlier work.
A further test concerns the target T2, GAT-3 (Rattus norvegicus, UniProt P31647).
T2 sequence (P31647 1-627): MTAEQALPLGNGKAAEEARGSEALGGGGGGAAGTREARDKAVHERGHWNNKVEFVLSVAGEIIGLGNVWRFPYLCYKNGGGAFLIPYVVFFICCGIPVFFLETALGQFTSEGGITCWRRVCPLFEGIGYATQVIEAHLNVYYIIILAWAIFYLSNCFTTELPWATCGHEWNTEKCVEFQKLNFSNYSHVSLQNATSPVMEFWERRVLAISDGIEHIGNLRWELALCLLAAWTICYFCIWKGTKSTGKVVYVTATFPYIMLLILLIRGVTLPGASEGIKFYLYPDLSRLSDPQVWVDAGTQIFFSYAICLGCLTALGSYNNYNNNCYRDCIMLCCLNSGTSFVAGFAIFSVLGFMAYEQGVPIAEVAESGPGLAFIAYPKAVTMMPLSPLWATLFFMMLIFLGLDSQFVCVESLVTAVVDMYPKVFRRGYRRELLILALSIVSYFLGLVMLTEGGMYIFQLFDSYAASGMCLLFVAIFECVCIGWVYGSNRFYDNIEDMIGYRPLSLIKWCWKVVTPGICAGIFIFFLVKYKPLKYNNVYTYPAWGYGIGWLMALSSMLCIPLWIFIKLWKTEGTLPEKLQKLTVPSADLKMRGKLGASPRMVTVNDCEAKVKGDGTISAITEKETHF
In words: Affinity of GABA at GAT-3, suspension vs attached cells. The class given is cell-based. Conditions: Borden, unpublished. The protocol:
as §2

For a further test, the target named is T3, GAT-2 (Rattus norvegicus, UniProt P31646).
T3 sequence (P31646 1-602): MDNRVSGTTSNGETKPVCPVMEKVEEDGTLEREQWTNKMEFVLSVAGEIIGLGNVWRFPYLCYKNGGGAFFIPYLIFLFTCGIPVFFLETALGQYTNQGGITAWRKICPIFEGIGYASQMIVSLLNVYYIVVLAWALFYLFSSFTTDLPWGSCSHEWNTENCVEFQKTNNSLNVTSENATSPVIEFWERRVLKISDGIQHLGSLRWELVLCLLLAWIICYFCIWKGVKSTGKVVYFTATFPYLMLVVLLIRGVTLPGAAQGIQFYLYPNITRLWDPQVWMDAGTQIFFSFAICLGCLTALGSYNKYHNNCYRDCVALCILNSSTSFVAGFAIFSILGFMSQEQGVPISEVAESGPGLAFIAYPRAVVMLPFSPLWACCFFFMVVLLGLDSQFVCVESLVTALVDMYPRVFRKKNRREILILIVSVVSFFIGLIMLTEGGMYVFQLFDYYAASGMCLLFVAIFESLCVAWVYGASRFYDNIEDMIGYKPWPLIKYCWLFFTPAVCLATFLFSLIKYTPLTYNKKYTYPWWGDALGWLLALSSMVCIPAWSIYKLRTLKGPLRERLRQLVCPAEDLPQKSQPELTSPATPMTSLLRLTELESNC
In words: Affinity of GABA at GAT-2, suspension vs attached cells. The class given is cell-based. To be noted: Borden, unpublished. From the text: […]. […] Another important factor is our use of suspension cultures. […]. Liu et al., 1992a).

The test system of test [5] is dog betaine/GABA transporter. To be noted: data from Yamauchi et al., 1992; estimated from one or two concentrations of inhibitor; cited from earlier work.
The test system of test [6] is mouse betaine/GABA transporter. In words: Inhibition at mouse betaine/GABA transporter clone (literature comparison). The class given is cell-based. Conditions: comparison across clones. The protocol: as §2

Consider eleven molecules from patent US5712148A (Synaptic Pharmaceutical Corporation, priority 1995, dated 1998).

Several values for one entry are separate records, joined by “and”; a condition that tells them apart may be missing. Identical values can stand only once. Like-named read-outs stand apart in the source and are kept apart here. A value given as a limit tells only on which side of the number the result lay.

For the molecule `C=C[C@H]1C[N@@]2CC[C@H]1C[C@@H]2[C@@H](O)c1ccnc2ccc(OC)cc12` [quinidine], the 50% inhibitory concentration (IC50) (as a rule, the midpoint of a concentration-inhibition curve) in test [1] (IC50 (human)) was 488 µM and ~50 µM. For the same molecule, in test [1], the inhibition (in general, the change of the read-out against control, counted positive when it falls) at 100 µM is 92% and the inhibition at 500 µM was 85%. Besides, in test [2], the 50% inhibitory concentration (IC50) is 49 µM.
Consider `NCCCC(=O)O` [GABA, γ-aminobutyric acid], for which, in test [3], the “affinity of hBGT for GABA vs other GABA transporters” value is reported as “lower than that of other GABA transporters”. The “higher affinity of the transporter for GABA than for betaine” value in test [4] was 4 fold. Further, the “affinity for GABA vs betaine, in words” value in test [4] (betaine transporter cloned from MDCK dog kidney cells) is on record as “higher affinity for GABA than for betaine”. Besides, the “increase in affinity of GABA in suspension vs attached cells (GAT-3)” value at GAT-3 was “about 10 fold”. The “increase in affinity of GABA in suspension vs attached cells (GAT-2)” value on GAT-2 is recorded as “about 10 fold”.
On to `O=C(O)C1CCCNC1` (centres unmarked) [nipecotic acid], for which, in test [1], the “potency at hS1a vs dog and mouse transporters, in words” value is “more potent at hS1a than at either of the other two transporters”; the inhibition at 100 µM is 34 ± 19%. Also, in test [5], the IC50 was 4700 µM.
On to `Cc1ccsc1C(=CCCN1CCC[C@@H](C(=O)O)C1)c1sccc1C` [(R)-Tiagabine], for which, in test [1], the “inhibitory potency at hS1a in words” value is listed as “weak inhibitors” and the inhibition at 100 µM was 12 ± 7%.
With `NCCC(=O)O` [β-alanine], in test [1], the “potency at hS1a vs dog and mouse transporters, in words” value is listed as “more potent at hS1a than at either of the other two transporters”. Moreover, the IC50 in test [1] (read-out: IC50 (human)) was 138 µM and 150 to 250 µM; in test [2], 1900 µM; in test [5], 2400 µM. In addition, in test [1], the inhibition at 100 µM was 42 ± 22%.
For `NCC[C@H](N)C(=O)O` [L-DABA, L-(2,4)diaminobutyric acid], the inhibition at 100 µM in test [1] is 24 ± 24%.
In the case of “hydroxynipecotic acid [OH-nipecotic acid]”, the IC50 is over 1000 µM in test [1] (10 min, listed as Hydroxynipecotic acid, 10 min, read-out: IC50 (human)) and 1150 µM in test [1] (10 min, read-out: IC50 (human)). Besides, in test [1], the “inhibitory potency at hS1a in words” value is given as “weak inhibitors”. In test [1] (inhibitor 100 μM, 50 nM [^3 H]GABA, 10 minutes, 37° C., mean ± SEM), the “% Inhibition of specific [^3 H]GABA uptake” value is reported as 8 ± 8%.
With `N[C@@H]1CCC[C@H](C(=O)O)C1` (relative stereo) [ACHC, cis-3-aminocyclohexanecarboxylic acid], in test [1], the “inhibitory potency at hS1a in words” value was “weak inhibitors” and the inhibition at 100 µM was 0%.
On to `C[N+](C)(C)CC(=O)O` [betaine], for which the concentration for half-maximal inhibition (IC50) in test [1] (read-out: IC50 (human)) is 258 µM and 150 to 250 µM; in test [2], 206 µM. The inhibition at 500 µM in test [1] is 66 ± 15%.
Take `O=C(CCc1ccc(O)cc1)c1c(O)cc(O)cc1O` [phloretin]: the 50% inhibitory concentration (IC50) is 258 µM in test [1] (read-out: IC50 (human)), 37 µM in test [2] and 200 µM in test [5]. The inhibition at 500 µM in test [1] was 66%. The “potency at mouse BGT vs dog or human clones, in words” value in test [6] was “more potent at the mouse BGT than at the dog or human clones”.
For `O=C(O)C1=CCCNC1` [guvacine], the half-inhibitory concentration (IC50) in test [1] (read-out: IC50 (human)) was 1900 µM. Moreover, in test [1], the “inhibitory potency at hS1a in words” value was “weak inhibitors” and the inhibition at 100 µM was 5 ± 5%. In addition, the IC50 in test [2] was 2800 µM.
